Data from publication PMC10584170, “Machine learning-based phenotypic imaging to characterise the targetable biology of Plasmodium falciparum male gametocytes for the development of transmission-blocking antimalarials” (PLOS Pathogens, 2023).
Like-named read-outs stand apart in the source and are kept apart here.

Key:
[1] = tested on: P. falciparum male gametocytes; test: P. falciparum Dual Gamete Formation Assay (PfDGFA), male readout (exflagellation); format: cell-based, Plasmodium falciparum NF54; details: for Activity: hit = >50% inhibition in male or female readout in at least 3 replicates, 0 = no class assigned
Experimental: (§1) P. falciparum NF54 (originally isolated from an imported malaria case in the Netherlands in the 1980s; BEI Resources, cat. No. MRA-1000) strain asexual parasites were maintained between 0.3–5% parasitaemia by regular passage in complete culture medium (RPMI supplemented with 25 mM HEPES, 50 μg ml^−1 hypoxanthine, 4.8 g l^−1 NaHCO3, 2mM L-glutamine, 5% pooled type AB serum, 0.5% Albumax II (Gibco)) at 4% haematocrit in washed whole blood (National Blood and Transfusion Service or Centro de Transfusiones de la Comunidad de Madrid CTCM) under a 1% O2/3% CO2/96% N2 environment. Gametocytes were induced by seeding culture flasks at 2% parasitaemia/4% haematocrit and subjecting them to daily medium changes for 14 days whilst maintaining a temperature of 37°C at all times. On Day 14, the maturity of gametocytes was assessed by quantifying male gametogenesis (exflagellation). A 20 μl sample of gametocyte culture was mixed with equal volume of ookinete medium (complete culture medium supplemented with 0.1 μM xanthurenic acid) at room temperature and transferred to a haemocytometer. After 20 min at room temperature, exflagellation was accurately quantified as described in Delves et al. 2016 [17].
(§2) The Pf DGFA was performed as described in Delves et al. 2016 [17]. […] Plates were then incubated for 24 h at 37°C in a humidified box under a 1% O2/3% CO2/96% N2 gas mix. Gametogenesis was triggered by addition of 10 μl per well of ookinete medium + 0.27 μg ml^-1 Cy3-labelled anti-Pfs25 antibody. Plates were incubated on a metal block at 4°C for 4 min to ensure even cooling, then 28°C for a further 4 min. Exflagellation was recorded by capturing 10 frames over 1 s under brightfield illumination using a x4 objective with a 1.5x zoom (effectively x6) attached to an automated Nikon Ti fluorescence microscope. After recording exflagellation, plates were incubated for a further 24 h in the dark at 28°C to ensure maximal expression of Pfs25 by female gametes. The plates were then returned to the microscope and female gametes imaged at x6 using fluorescence microscopy.
(§3) Exflagellation centres and female gametes were quantified using custom image analysis pipelines developed within ICY Bioimage Analysis (https://icy.bioimageanalysis.org/).

[2] = tested on: P. falciparum female gametocytes; test: P. falciparum Dual Gamete Formation Assay (PfDGFA), female readout (Pfs25-positive female gametes); format: cell-based, Plasmodium falciparum NF54
Experimental: as §1, §2, §3

[3] = 2µM, 24h preincubation with gametocytes prior to induction of gametogenesis, average of replicates
[4] = 2µM, 24h preincubation with gametocytes prior to induction of gametogenesis, replicate R1
[5] = 2µM, 24h preincubation with gametocytes prior to induction of gametogenesis, replicate R3
[6] = 2µM, 24h preincubation with gametocytes prior to induction of gametogenesis, replicate R4
[7] = 2µM, 24h preincubation, hits selected on >50% inhibition in the male readout across replicates
[8] = PfDGFA at 2µM, 24h preincubation
[9] = 2µM, 24h preincubation, hits selected on >50% inhibition in the female readout across replicates
[10] = PfDGFA at 2µM, 24h preincubation with gametocytes prior to induction of gametogenesis, replicate R1
[11] = PfDGFA at 2µM, 24h preincubation with gametocytes prior to induction of gametogenesis, replicate R3
[12] = PfDGFA at 2µM, 24h preincubation with gametocytes prior to induction of gametogenesis, replicate R4
[13] = PfDGFA at 2µM, 24h preincubation, average of replicates
[14] = 2µM, 24h preincubation with gametocytes, average of replicates
[15] = 2µM, 24h preincubation with gametocytes, replicate R1
[16] = 2µM, 24h preincubation with gametocytes, replicate R3
[17] = 2µM, 24h preincubation with gametocytes, replicate R4
[18] = 2µM, 24h preincubation, number of replicates with >50% inhibition in the male readout
[19] = 2µM, 24h preincubation, number of replicates with >50% inhibition in the female readout

COc1ccc(-c2csc3nc(C)nc(Cl)c23)cc1OC [TCMDC-125523]
Average inhibition male (%) [1, 3]: -3.5%
% inhibition male (individual replicates) R1 [1, 4]: -8.3%
% inhibition male (individual replicates) R3 [1, 5]: -15.7%
% inhibition male (individual replicates) R4 [1, 6]: 6.2%
HitlevelM [1, 7]: 0
Activity [1, 8]: 0
Average inhibition female (%) [2, 3]: 3.7%
% inhibition female (individual replicates) R1 [2, 4]: 4.5%
% inhibition female (individual replicates) R3 [2, 5]: -29.0%
% inhibition female (individual replicates) R4 [2, 6]: 16.0%
HitlevelF [2, 9]: 0

c1ccc2sc(Sc3ncnc4sccc34)nc2c1 [TCMDC-125539]
Selectivity Ratio M ([1]; HepG2 Tox50 versus male IC50): 337.73
inhibition at 2 µM ([1]; Plasmodium falciparum, 2µM, 24h preincubation with gametocytes, average of replicates, read-out: Average inhibition male (%)): 97.1%
inhibition at 2 µM ([1]; Plasmodium falciparum, 2µM, 24h preincubation with gametocytes, replicate R1, read-out: % inhibition male (individual replicates) R1): 100%
inhibition at 2 µM ([1]; Plasmodium falciparum, 2µM, 24h preincubation with gametocytes, replicate R2, read-out: % inhibition male (individual replicates) R2): 97.4%
inhibition at 2 µM ([1]; Plasmodium falciparum, 2µM, 24h preincubation with gametocytes, replicate R3, read-out: % inhibition male (individual replicates) R3): 95.7%
inhibition at 2 µM ([1]; Plasmodium falciparum, 2µM, 24h preincubation with gametocytes, replicate R4, read-out: % inhibition male (individual replicates) R4): 94.9%
IC50 ([1]; Plasmodium falciparum, PfDGFA, 24 h incubation with gametocytes before induction, exflagellation readout, read-out: Male IC50): 300 nM
Selectivity ratio F ([2]; HepG2 Tox50 versus female IC50): 340.93
inhibition at 2 µM ([2]; Plasmodium falciparum, 2µM, 24h preincubation with gametocytes, average of replicates, read-out: Average inhibition female (%)): 60%
inhibition at 2 µM ([2]; Plasmodium falciparum, 2µM, 24h preincubation with gametocytes, replicate R1, read-out: % inhibition female (individual replicates) R1): 39.3%
inhibition at 2 µM ([2]; Plasmodium falciparum, 2µM, 24h preincubation with gametocytes, replicate R2, read-out: % inhibition female (individual replicates) R2): 92.2%
inhibition at 2 µM ([2]; Plasmodium falciparum, 2µM, 24h preincubation with gametocytes, replicate R3, read-out: % inhibition female (individual replicates) R3): 35.1%
inhibition at 2 µM ([2]; Plasmodium falciparum, 2µM, 24h preincubation with gametocytes, replicate R4, read-out: % inhibition female (individual replicates) R4): 73.5%
IC50 ([2]; Plasmodium falciparum, PfDGFA, 24 h incubation with gametocytes before induction, female gamete readout, read-out: Female IC50): 290 nM

CN1CCN(c2cc(-c3cccnc3)nc(-c3ccncc3)n2)CC1 [TCMDC-125593]
% inhibition male (individual replicates) R1 [1, 10]: -6.4%
% inhibition male (individual replicates) R3 [1, 11]: -15.1%
% inhibition male (individual replicates) R4 [1, 12]: 5.5%
Average inhibition male (%) [1, 13]: -4.3%
% inhibition female (individual replicates) R1 [2, 10]: -2.3%
% inhibition female (individual replicates) R3 [2, 11]: -6.8%
% inhibition female (individual replicates) R4 [2, 12]: 22.4%
Average inhibition female (%) [2, 13]: 0.0475%

Br.CCCCCCCCn1c2c(c(=N)c3c1CCC3)CCCC2 [TCMDC-125653]
Average inhibition male (%) [1, 3]: 42.3%
% inhibition male (individual replicates) R1 [1, 4]: 42.8%
% inhibition male (individual replicates) R3 [1, 5]: 52.3%
% inhibition male (individual replicates) R4 [1, 6]: 40.6%
HitlevelM [1, 7]: 1
Activity [1, 8]: 0
Average inhibition female (%) [2, 3]: 10.3%
% inhibition female (individual replicates) R1 [2, 4]: 8.6%
% inhibition female (individual replicates) R3 [2, 5]: 3.3%
% inhibition female (individual replicates) R4 [2, 6]: 15.0%
HitlevelF [2, 9]: 0

COc1ccc2nc3cc(Cl)ccc3c(N)c2c1.Cl [TCMDC-125835]
Average inhibition male (%) [1, 14]: 96.0%
% inhibition male (individual replicates) R1 [1, 15]: 94.1%
% inhibition male (individual replicates) R3 [1, 16]: 90.9%
% inhibition male (individual replicates) R4 [1, 17]: 101.6%
Average inhibition female (%) [2, 14]: 50.6%
% inhibition female (individual replicates) R1 [2, 15]: 39.5%
% inhibition female (individual replicates) R3 [2, 16]: 15.3%
% inhibition female (individual replicates) R4 [2, 17]: 62.7%

Clc1ccc(Cc2nc3ccccc3[nH]2)cc1Cl [TCMDC-125878]
% inhibition male (individual replicates) R1 [1, 10]: 0.8%
% inhibition male (individual replicates) R3 [1, 11]: -14.5%
% inhibition male (individual replicates) R4 [1, 12]: 2.2%
Average inhibition male (%) [1, 13]: -4.5%
% inhibition female (individual replicates) R1 [2, 10]: 8.9%
% inhibition female (individual replicates) R3 [2, 11]: -15.0%
% inhibition female (individual replicates) R4 [2, 12]: -0.8%
Average inhibition female (%) [2, 13]: 0.655%

COc1ccc(CCNCCCCCCNCCc2ccc(-c3ccccc3)cc2)cc1OC.Cl [TCMDC-131267]
Average inhibition male (%) [1, 14]: 91.2%
% inhibition male (individual replicates) R1 [1, 15]: 90.5%
% inhibition male (individual replicates) R4 [1, 17]: 88.4%
Average inhibition female (%) [2, 14]: 51.9%
% inhibition female (individual replicates) R1 [2, 15]: 49.5%
% inhibition female (individual replicates) R3 [2, 16]: 51.6%
% inhibition female (individual replicates) R4 [2, 17]: 50.9%

COc1ccc(CCNCCCCCNCCc2ccc(Cl)cc2)cc1OC.Cl [TCMDC-131269]
Average inhibition male (%) [1, 3]: 50.1%
% inhibition male (individual replicates) R1 [1, 4]: 46.0%
% inhibition male (individual replicates) R3 [1, 5]: 29.0%
% inhibition male (individual replicates) R4 [1, 6]: 62.2%
HitlevelM [1, 7]: 2
Activity [1, 8]: 0
Average inhibition female (%) [2, 3]: 7.8%
% inhibition female (individual replicates) R1 [2, 4]: 17.8%
% inhibition female (individual replicates) R3 [2, 5]: -21.2%
% inhibition female (individual replicates) R4 [2, 6]: 18.8%
HitlevelF [2, 9]: 0

Br.Oc1ccc(CCNCCCCCCNCCc2ccc(Cl)c3ccccc23)cc1O [TCMDC-131271]
Average inhibition male (%) [1, 3]: 50.9%
% inhibition male (individual replicates) R1 [1, 4]: 51.3%
% inhibition male (individual replicates) R3 [1, 5]: 62.1%
% inhibition male (individual replicates) R4 [1, 6]: 62.3%
HitlevelM [1, 18]: 3
Average inhibition female (%) [2, 3]: 16.5%
% inhibition female (individual replicates) R1 [2, 4]: 16.8%
% inhibition female (individual replicates) R3 [2, 5]: 9.0%
% inhibition female (individual replicates) R4 [2, 6]: 24.5%
HitlevelF [2, 19]: 0

COc1ccc(CCNCCCCCCNCCc2ccc(Cl)c(Cl)c2)cc1OC.Cl [TCMDC-131275]
Average inhibition male (%) [1, 3]: 39.4%
% inhibition male (individual replicates) R1 [1, 4]: 42.2%
% inhibition male (individual replicates) R3 [1, 5]: 31.4%
% inhibition male (individual replicates) R4 [1, 6]: 46.9%
HitlevelM [1, 7]: 0
Activity [1, 8]: 0
Average inhibition female (%) [2, 3]: 10.6%
% inhibition female (individual replicates) R1 [2, 4]: 26.6%
% inhibition female (individual replicates) R3 [2, 5]: -14.3%
% inhibition female (individual replicates) R4 [2, 6]: 22.3%
HitlevelF [2, 9]: 0

Br.CC(C)(Cc1ccc(Cl)cc1)NCCCCCCNCCc1ccc(O)c(O)c1 [TCMDC-131277]
Average inhibition male (%) [1, 3]: 21.3%
% inhibition male (individual replicates) R1 [1, 4]: 17.2%
% inhibition male (individual replicates) R3 [1, 5]: 18.9%
% inhibition male (individual replicates) R4 [1, 6]: 31.6%
HitlevelM [1, 18]: 0
Average inhibition female (%) [2, 3]: 25.5%
% inhibition female (individual replicates) R1 [2, 4]: 31.9%
% inhibition female (individual replicates) R3 [2, 5]: 42.8%
% inhibition female (individual replicates) R4 [2, 6]: 1.4%
HitlevelF [2, 19]: 0
